The conditions of series [1]: Liquid; for mass density: 298.15 K, 101.33 kPa.
Series [2] is described as follows: refractive index (Na D-line) (dimensionless). The settings on record: 298.15 K; 101.33 kPa; Liquid.

± gives the expanded uncertainty stated by the source.

Among the data in the NIST ThermoML archive (doi:10.1021/je0342318) are mass density, Normal boiling temperature and refractive index values, retold here.

With `Cc1ccc(C)cc1` [1,4-dimethylbenzene], the mass density in series [1] (Vibrating tube method) is reported as 856.55 ± 0.56 kg/m3. Further, the Normal boiling temperature in series [1] was determined as 138.08 ± 0.5 °C. In addition, in series [2], the refractive index was 1.493 ± 0.001.
`CCO` [ethanol]: the mass density in series [1] (Vibrating tube method) came out at 785.04 ± 0.51 kg/m3. Besides, the Normal boiling temperature in series [1] is 78.26 ± 0.1 °C. For the same compound, the refractive index in series [2] was determined as 1.3592 ± 0.0006.
For `CC1CCCCC1` [methylcyclohexane], in series [1], the mass density is listed as 764.87 ± 0.44 kg/m3 and the Normal boiling temperature is 100.81 ± 0.5 °C. For the same compound, in series [2], the refractive index stood at 1.4204 ± 0.0006.
